Laboratory results published in ChEMBL document CHEMBL3286103.
Active and inactive are the calls of the source. The calls are words filed in the database; no cut-off is given here.

Molecular target: T1, Vitamin D3 receptor A (Danio rerio) (UniProt Q9PTN2)
T1 sequence (whole entry): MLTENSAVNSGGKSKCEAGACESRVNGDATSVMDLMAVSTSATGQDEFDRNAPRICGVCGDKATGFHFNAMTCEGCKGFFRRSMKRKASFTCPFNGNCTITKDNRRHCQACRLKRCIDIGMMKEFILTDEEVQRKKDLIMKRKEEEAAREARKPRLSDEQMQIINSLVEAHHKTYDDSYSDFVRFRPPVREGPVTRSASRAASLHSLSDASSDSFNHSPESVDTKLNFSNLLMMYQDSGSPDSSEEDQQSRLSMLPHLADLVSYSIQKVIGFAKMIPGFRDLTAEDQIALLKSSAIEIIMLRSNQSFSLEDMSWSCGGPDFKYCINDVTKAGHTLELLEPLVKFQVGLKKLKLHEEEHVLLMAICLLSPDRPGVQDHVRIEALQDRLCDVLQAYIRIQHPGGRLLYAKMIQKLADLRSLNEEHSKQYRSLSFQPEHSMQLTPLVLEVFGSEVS
Assay: Binding affinity to N-terminal His-tagged zebrafish VDR LBD (154 to 456) at 10 to 20-fold molar excess by ESI-MS analysis

C[C@H](CCC(=O)O)[C@H]1CC[C@H]2[C@@H]3CC[C@@H]4C[C@H](O)CC[C@]4(C)[C@H]3CC[C@]12C
Activity: Active
